Test results taken from PMC6591251, “Discovery of potent necroptosis inhibitors targeting RIPK1 kinase activity for the treatment of inflammatory disorder and cancer metastasis” (Cell Death & Disease, 2019).

Legend:
U937 cells = assay: TNF-induced necroptosis (T/S/Z), cell viability by ATP levels; type: cell-based; details: Homo sapiens, U-937, 24 h, T/S/Z 24 h
ABL1 = molecular target: T1, ABL1 (Homo sapiens, UniProt P00519); assay: RBC kinase panel; type: biochemical; details: ATP 10 μM, Data1, Data2
T1 construct: purchased Reaction Biology Corporation
How it was run: (§1)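 Kinases from a 369-member human panel were incubated with 1 μM compound under 10 μM ATP, and every assay was done in duplicate.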

Aurora B = molecular target: T2, Aurora B (Homo sapiens, UniProt Q96GD4); assay: RBC kinase panel; type: biochemical; details: ATP 10 μM, Data1, Data2
T2 construct: purchased Reaction Biology Corporation
How it was run: as §1

BRSK2 = molecular target: T3, BRSK2 (Homo sapiens, UniProt Q8IWQ3); assay: RBC kinase panel; type: biochemical; details: ATP 10 μM, Data1, Data2
T3 construct: purchased Reaction Biology Corporation
How it was run: as §1

CAMK1b = molecular target: T4, CAMK1b (Homo sapiens, UniProt Q6P2M8); assay: RBC kinase panel; type: biochemical; details: ATP 10 μM, Data1, Data2
T4 construct: purchased Reaction Biology Corporation
How it was run: as §1

CAMK2d = molecular target: T5, CAMK2d (Homo sapiens, UniProt Q13557); assay: RBC kinase panel; type: biochemical; details: ATP 10 μM, Data1, Data2
T5 construct: purchased Reaction Biology Corporation
How it was run: as §1

CAMK2g = molecular target: T6, CAMK2g (Homo sapiens, UniProt Q13555); assay: RBC kinase panel; type: biochemical; details: ATP 10 μM, Data1, Data2
T6 construct: purchased Reaction Biology Corporation
How it was run: as §1

CDK14/cyclin Y (PFTK1) = molecular target: T7, CDK14/cyclin Y (PFTK1) (Homo sapiens, UniProt O94921); assay: RBC kinase panel; type: biochemical; details: ATP 10 μM, Data1, Data2
T7 construct: purchased Reaction Biology Corporation
How it was run: as §1

CK1epsilon = molecular target: T8, CK1epsilon (Homo sapiens, UniProt P49674); assay: RBC kinase panel; type: biochemical; details: ATP 10 μM, Data1, Data2
T8 construct: purchased Reaction Biology Corporation
T8 sequence (P49674 whole entry): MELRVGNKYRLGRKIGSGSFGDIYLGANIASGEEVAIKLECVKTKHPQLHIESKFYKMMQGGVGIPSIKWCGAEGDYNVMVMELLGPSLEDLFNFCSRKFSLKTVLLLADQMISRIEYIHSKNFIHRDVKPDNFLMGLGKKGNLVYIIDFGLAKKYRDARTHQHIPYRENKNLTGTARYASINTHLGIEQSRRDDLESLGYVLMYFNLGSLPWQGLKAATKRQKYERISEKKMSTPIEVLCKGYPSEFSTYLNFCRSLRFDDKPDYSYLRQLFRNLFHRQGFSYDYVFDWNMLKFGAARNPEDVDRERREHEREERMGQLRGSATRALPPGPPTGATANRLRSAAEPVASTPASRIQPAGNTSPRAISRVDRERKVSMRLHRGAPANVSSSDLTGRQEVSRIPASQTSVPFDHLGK
How it was run: as §1

DAPK1 = molecular target: T9, DAPK1 (Homo sapiens, UniProt P53355); assay: RBC kinase panel; type: biochemical; details: ATP 10 μM, Data1, Data2
T9 construct: purchased Reaction Biology Corporation
T9 sequence (P53355 whole entry): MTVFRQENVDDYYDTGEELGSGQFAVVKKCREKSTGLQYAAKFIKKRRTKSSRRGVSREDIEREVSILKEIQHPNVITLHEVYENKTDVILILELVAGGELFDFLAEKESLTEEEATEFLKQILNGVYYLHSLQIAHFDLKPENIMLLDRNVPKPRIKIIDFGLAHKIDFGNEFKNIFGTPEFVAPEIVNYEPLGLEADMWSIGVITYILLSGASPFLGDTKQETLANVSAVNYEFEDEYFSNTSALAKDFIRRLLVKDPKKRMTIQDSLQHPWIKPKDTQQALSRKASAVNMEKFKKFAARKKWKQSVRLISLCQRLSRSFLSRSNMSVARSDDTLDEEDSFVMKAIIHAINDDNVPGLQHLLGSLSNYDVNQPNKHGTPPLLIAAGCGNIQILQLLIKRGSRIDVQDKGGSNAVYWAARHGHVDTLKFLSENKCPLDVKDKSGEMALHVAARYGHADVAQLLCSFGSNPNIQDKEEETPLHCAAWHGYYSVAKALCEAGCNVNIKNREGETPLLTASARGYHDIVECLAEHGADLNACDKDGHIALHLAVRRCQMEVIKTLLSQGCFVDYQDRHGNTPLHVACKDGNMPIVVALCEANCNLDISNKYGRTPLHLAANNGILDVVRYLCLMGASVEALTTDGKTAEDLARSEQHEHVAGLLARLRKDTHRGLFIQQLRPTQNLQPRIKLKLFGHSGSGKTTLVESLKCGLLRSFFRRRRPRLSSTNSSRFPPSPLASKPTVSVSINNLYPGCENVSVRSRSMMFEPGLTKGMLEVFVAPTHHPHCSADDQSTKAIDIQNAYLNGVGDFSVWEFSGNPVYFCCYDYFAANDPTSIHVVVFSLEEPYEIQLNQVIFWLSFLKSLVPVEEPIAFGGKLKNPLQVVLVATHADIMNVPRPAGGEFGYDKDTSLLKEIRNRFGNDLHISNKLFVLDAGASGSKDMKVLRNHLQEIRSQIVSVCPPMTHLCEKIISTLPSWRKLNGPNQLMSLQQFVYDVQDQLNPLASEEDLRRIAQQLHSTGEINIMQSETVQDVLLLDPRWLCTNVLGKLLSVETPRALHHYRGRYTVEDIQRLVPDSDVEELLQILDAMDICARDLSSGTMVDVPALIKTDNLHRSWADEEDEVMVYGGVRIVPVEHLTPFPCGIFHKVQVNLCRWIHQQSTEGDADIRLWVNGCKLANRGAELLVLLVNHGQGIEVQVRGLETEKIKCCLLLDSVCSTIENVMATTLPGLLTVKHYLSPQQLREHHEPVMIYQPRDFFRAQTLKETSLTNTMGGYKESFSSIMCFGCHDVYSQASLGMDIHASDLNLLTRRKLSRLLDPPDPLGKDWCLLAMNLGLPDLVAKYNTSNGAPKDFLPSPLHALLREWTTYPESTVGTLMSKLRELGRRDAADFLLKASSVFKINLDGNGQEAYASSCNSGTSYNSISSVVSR
How it was run: as §1

DMPK = molecular target: T10, DMPK (Homo sapiens, UniProt Q09013); assay: RBC kinase panel; type: biochemical; details: ATP 10 μM, Data1, Data2
T10 construct: purchased Reaction Biology Corporation
How it was run: as §1

FGFR1 = molecular target: T11, FGFR1 (Homo sapiens, UniProt P11362); assay: RBC kinase panel; type: biochemical; details: ATP 10 μM, Data1, Data2
T11 construct: purchased Reaction Biology Corporation
How it was run: as §1

FMS = molecular target: T12, FMS (Homo sapiens, UniProt P07333); assay: RBC kinase panel; type: biochemical; details: ATP 10 μM, Data1, Data2
T12 construct: purchased Reaction Biology Corporation
How it was run: as §1

Haspin = molecular target: T13, Haspin (Homo sapiens, UniProt Q8TF76); assay: RBC kinase panel; type: biochemical; details: ATP 10 μM, Data1, Data2
T13 construct: purchased Reaction Biology Corporation
How it was run: as §1

IKKa/CHUK = molecular target: T14, IKKa/CHUK (Homo sapiens, UniProt O15111); assay: RBC kinase panel; type: biochemical; details: ATP 10 μM, Data1, Data2
T14 construct: purchased Reaction Biology Corporation
How it was run: as §1

JAK1 = molecular target: T15, JAK1 (Homo sapiens, UniProt P23458); assay: RBC kinase panel; type: biochemical; details: ATP 10 μM, Data1, Data2
T15 construct: purchased Reaction Biology Corporation
How it was run: as §1

LATS2 = molecular target: T16, LATS2 (Homo sapiens, UniProt Q9NRM7); assay: RBC kinase panel; type: biochemical; details: ATP 10 μM, Data1, Data2
T16 construct: purchased Reaction Biology Corporation
How it was run: as §1

LCK2/ICK = molecular target: T17, LCK2/ICK (Homo sapiens, UniProt Q9UPZ9); assay: RBC kinase panel; type: biochemical; details: ATP 10 μM, Data1, Data2
T17 construct: purchased Reaction Biology Corporation
T17 sequence (Q9UPZ9 whole entry): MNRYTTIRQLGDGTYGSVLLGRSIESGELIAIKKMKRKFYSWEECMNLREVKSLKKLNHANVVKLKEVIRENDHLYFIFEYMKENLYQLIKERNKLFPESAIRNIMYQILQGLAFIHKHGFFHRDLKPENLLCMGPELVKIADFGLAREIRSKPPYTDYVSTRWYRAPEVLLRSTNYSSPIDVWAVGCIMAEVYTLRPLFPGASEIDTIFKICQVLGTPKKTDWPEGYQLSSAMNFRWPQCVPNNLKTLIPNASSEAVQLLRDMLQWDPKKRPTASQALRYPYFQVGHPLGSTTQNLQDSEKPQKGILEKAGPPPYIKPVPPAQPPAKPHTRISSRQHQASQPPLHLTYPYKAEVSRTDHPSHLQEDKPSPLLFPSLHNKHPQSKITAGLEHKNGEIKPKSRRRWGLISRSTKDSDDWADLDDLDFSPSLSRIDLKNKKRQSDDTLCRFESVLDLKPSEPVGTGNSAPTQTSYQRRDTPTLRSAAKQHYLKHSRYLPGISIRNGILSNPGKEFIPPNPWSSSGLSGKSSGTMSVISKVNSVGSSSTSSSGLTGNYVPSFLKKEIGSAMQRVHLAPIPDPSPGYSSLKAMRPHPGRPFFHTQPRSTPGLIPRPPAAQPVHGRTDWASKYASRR
How it was run: as §1

MEK3 = molecular target: T18, MEK3 (Homo sapiens, UniProt P46734); assay: RBC kinase panel; type: biochemical; details: ATP 10 μM, Data1, Data2
T18 construct: purchased Reaction Biology Corporation
How it was run: as §1

MLK2/MAP3K10 = molecular target: T19, MLK2/MAP3K10 (Homo sapiens, UniProt Q02779); assay: RBC kinase panel; type: biochemical; details: ATP 10 μM, Data1, Data2
T19 construct: purchased Reaction Biology Corporation
T19 sequence (Q02779 whole entry): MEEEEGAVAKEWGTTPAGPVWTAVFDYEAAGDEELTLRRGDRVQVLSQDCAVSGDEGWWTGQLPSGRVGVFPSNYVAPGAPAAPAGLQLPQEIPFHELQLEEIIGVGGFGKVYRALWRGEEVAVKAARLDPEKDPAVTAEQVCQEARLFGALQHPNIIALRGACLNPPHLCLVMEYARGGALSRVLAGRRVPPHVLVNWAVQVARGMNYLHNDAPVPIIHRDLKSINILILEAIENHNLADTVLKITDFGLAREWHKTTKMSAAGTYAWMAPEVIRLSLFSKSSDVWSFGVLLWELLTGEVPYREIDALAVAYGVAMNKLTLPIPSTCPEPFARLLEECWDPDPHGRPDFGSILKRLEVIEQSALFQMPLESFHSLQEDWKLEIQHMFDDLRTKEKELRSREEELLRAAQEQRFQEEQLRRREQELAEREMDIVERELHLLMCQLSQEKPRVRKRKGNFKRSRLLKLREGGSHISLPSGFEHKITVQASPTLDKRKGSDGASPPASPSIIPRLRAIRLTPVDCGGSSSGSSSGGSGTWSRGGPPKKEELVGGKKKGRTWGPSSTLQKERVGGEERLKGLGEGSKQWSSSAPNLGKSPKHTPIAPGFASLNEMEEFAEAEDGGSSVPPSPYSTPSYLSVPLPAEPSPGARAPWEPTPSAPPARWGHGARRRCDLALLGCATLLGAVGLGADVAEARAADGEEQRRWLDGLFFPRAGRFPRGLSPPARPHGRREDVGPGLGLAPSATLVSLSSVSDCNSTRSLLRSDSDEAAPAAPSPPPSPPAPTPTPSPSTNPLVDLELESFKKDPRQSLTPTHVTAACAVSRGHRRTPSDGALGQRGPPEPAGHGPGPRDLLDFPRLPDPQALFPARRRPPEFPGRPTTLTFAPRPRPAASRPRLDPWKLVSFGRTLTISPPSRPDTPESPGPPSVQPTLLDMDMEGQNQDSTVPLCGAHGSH
How it was run: as §1

MST3/STK24 = molecular target: T20, MST3/STK24 (Homo sapiens, UniProt Q9Y6E0); assay: RBC kinase panel; type: biochemical; details: ATP 10 μM, Data1, Data2
T20 construct: purchased Reaction Biology Corporation
How it was run: as §1

MYO3b = molecular target: T21, MYO3b (Homo sapiens, UniProt Q8WXR4); assay: RBC kinase panel; type: biochemical; details: ATP 10 μM, Data1, Data2
T21 construct: purchased Reaction Biology Corporation
How it was run: as §1

NEK1 = molecular target: T22, NEK1 (Homo sapiens, UniProt Q96PY6); assay: RBC kinase panel; type: biochemical; details: ATP 10 μM, Data1, Data2
T22 construct: purchased Reaction Biology Corporation
How it was run: as §1

PASK = molecular target: T23, PASK (Homo sapiens, UniProt Q96RG2); assay: RBC kinase panel; type: biochemical; details: ATP 10 μM, Data1, Data2
T23 construct: purchased Reaction Biology Corporation
How it was run: as §1

PDK1/PDPK1 = molecular target: T24, PDK1/PDPK1 (Homo sapiens, UniProt O15530); assay: RBC kinase panel; type: biochemical; details: ATP 10 μM, Data1, Data2
T24 construct: purchased Reaction Biology Corporation
How it was run: as §1

PKAcg = molecular target: T25, PKAcg (Homo sapiens, UniProt P22612); assay: RBC kinase panel; type: biochemical; details: ATP 10 μM, Data1, Data2
T25 construct: purchased Reaction Biology Corporation
T25 sequence (P22612 whole entry): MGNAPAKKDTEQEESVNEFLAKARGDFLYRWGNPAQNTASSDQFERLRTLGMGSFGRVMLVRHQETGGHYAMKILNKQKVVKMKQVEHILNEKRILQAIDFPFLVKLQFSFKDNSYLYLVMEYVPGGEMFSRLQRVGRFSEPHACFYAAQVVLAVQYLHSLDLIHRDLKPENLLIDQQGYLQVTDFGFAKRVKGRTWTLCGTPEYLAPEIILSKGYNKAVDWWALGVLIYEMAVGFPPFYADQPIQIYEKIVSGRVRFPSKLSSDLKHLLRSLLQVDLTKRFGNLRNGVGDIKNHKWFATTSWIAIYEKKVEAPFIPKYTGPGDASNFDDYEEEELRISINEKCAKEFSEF
How it was run: as §1

PKN1/PRK1 = molecular target: T26, PKN1/PRK1 (Homo sapiens, UniProt Q16512); assay: RBC kinase panel; type: biochemical; details: ATP 10 μM, Data1, Data2
T26 construct: purchased Reaction Biology Corporation
How it was run: as §1

RON/MST1R = molecular target: T27, RON/MST1R (Homo sapiens, UniProt Q04912); assay: RBC kinase panel; type: biochemical; details: ATP 10 μM, Data1, Data2
T27 construct: purchased Reaction Biology Corporation
How it was run: as §1

SBK1 = molecular target: T28, SBK1 (Homo sapiens, UniProt Q52WX2); assay: RBC kinase panel; type: biochemical; details: ATP 10 μM, Data1, Data2
T28 construct: purchased Reaction Biology Corporation
How it was run: as §1

SNARK/NUAK2 = molecular target: T29, SNARK/NUAK2 (Homo sapiens, UniProt Q9H093); assay: RBC kinase panel; type: biochemical; details: ATP 10 μM, Data1, Data2
T29 construct: purchased Reaction Biology Corporation
T29 sequence (Q9H093 whole entry): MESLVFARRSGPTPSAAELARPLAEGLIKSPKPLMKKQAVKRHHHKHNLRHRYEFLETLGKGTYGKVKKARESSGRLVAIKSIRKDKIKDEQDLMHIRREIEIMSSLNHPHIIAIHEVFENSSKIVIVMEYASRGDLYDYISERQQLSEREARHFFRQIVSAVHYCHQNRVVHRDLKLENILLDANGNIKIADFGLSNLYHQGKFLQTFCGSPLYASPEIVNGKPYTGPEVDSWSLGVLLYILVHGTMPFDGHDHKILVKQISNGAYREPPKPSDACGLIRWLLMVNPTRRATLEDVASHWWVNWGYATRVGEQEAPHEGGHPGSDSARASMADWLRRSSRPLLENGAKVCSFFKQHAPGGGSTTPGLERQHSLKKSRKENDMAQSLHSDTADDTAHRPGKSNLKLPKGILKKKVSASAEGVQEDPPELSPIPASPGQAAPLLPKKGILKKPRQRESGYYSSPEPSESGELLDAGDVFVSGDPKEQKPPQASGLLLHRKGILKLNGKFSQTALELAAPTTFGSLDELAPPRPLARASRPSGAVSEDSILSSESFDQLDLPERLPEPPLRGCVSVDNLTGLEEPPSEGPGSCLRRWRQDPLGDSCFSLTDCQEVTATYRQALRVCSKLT
How it was run: as §1

STK32C/YANK3 = molecular target: T30, STK32C/YANK3 (Homo sapiens, UniProt Q86UX6); assay: RBC kinase panel; type: biochemical; details: ATP 10 μM, Data1, Data2
T30 construct: purchased Reaction Biology Corporation
T30 sequence (Q86UX6 whole entry): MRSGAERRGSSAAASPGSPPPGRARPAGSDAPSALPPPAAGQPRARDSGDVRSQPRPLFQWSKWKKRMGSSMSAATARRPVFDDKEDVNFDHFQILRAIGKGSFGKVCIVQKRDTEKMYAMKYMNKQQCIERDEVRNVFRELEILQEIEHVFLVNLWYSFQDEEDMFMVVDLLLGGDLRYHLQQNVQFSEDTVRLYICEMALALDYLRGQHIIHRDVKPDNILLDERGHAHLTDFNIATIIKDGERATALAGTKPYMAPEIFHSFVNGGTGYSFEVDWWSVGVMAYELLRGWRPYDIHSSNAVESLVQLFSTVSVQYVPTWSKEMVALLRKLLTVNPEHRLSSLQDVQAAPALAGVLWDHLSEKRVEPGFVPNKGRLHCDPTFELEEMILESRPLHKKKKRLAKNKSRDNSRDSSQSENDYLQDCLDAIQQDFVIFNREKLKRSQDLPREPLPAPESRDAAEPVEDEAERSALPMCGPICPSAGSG
How it was run: as §1

TLK1 = molecular target: T31, TLK1 (Homo sapiens, UniProt Q9UKI8); assay: RBC kinase panel; type: biochemical; details: ATP 10 μM, Data1, Data2
T31 construct: purchased Reaction Biology Corporation
How it was run: as §1

CC(=O)Nc1nc2ccc(-c3cnc(Cl)c(NC(=O)Cc4ccccc4)c3)cc2s1 [PK6, N-(5-(2-acetamidobenzo[d]thiazol-6-yl)-2-chloropyridin-3-yl)-2-phenylacetamide]
EC50 (U937 cells): ~1330 nM

CC(=O)Nc1nc2ccc(-c3cnc(C)c(NC(=O)OC4CCCCC4)c3)cc2s1 [PK68, cyclohexyl (5-(2-acetamidobenzo[d]thiazol-6-yl)-2-methylpyridin-3-yl)carbamate]
Activity% (ABL1; 1 μM): 74.18%
activity at 1 µM (ABL1): 74.3%
Activity% (Aurora B; 1 μM): 83.50%
activity at 1 µM (Aurora B): 83.7%
Activity% (BRSK2; 1 μM): 98.88%
activity at 1 µM (BRSK2): 100%
Activity% (CAMK1b; 1 μM): 99.49%
activity at 1 µM (CAMK1b): 101%
Activity% (CAMK2d; 1 μM): 98.13%
activity at 1 µM (CAMK2d): 98.9%
Activity% (CAMK2g; 1 μM): 105.45%
activity at 1 µM (CAMK2g): 107%
Activity% (CDK14/cyclin Y (PFTK1); 1 μM): 96.97%
activity at 1 µM (CDK14/cyclin Y (PFTK1)): 97.4%
Activity% (CK1epsilon; 1 μM): 74.35%
activity at 1 µM (CK1epsilon): 78.2%
Activity% (DAPK1; 1 μM): 87.16%
activity at 1 µM (DAPK1): 88.5%
Activity% (DMPK; 1 μM): 100.30%
activity at 1 µM (DMPK): 101%
Activity% (FGFR1; 1 μM): 104.83%
activity at 1 µM (FGFR1): 105%
Activity% (FMS; 1 μM): 71.06%
activity at 1 µM (FMS): 71.1%
Activity% (Haspin; 1 μM): 94.31%
activity at 1 µM (Haspin): 94.5%
Activity% (IKKa/CHUK; 1 μM): 107.86%
activity at 1 µM (IKKa/CHUK): 117%
Activity% (JAK1; 1 μM): 99.20%
activity at 1 µM (JAK1): 99.5%
Activity% (LATS2; 1 μM): 93.96%
activity at 1 µM (LATS2): 94.4%
Activity% (LCK2/ICK; 1 μM): 100.77%
activity at 1 µM (LCK2/ICK): 101%
Activity% (MEK3; 1 μM): 99.61%
activity at 1 µM (MEK3): 99.7%
Activity% (MLK2/MAP3K10; 1 μM): 55.63%
activity at 1 µM (MLK2/MAP3K10): 57%
Activity% (MST3/STK24; 1 μM): 100.31%
activity at 1 µM (MST3/STK24): 102%
Activity% (MYO3b; 1 μM): 99.36%
activity at 1 µM (MYO3b): 99.9%
Activity% (NEK1; 1 μM): 95.75%
activity at 1 µM (NEK1): 96%
Activity% (PASK; 1 μM): 91.47%
activity at 1 µM (PASK): 93%
Activity% (PDK1/PDPK1; 1 μM): 90.43%
activity at 1 µM (PDK1/PDPK1): 92.7%
Activity% (PKAcg; 1 μM): 94.66%
activity at 1 µM (PKAcg): 95.6%
Activity% (PKN1/PRK1; 1 μM): 96.02%
activity at 1 µM (PKN1/PRK1): 97.8%
Activity% (RON/MST1R; 1 μM): 99.01%
activity at 1 µM (RON/MST1R): 99.6%
Activity% (SBK1; 1 μM): 102.75%
activity at 1 µM (SBK1): 104%
Activity% (SNARK/NUAK2; 1 μM): 97.10%
activity at 1 µM (SNARK/NUAK2): 98.7%
Activity% (STK32C/YANK3; 1 μM): 100.29%
activity at 1 µM (STK32C/YANK3): 101%
Activity% (TLK1; 1 μM): 97.39%
activity at 1 µM (TLK1): 99.2%
